Test results: US5837548A, “Treatment of inflammation by inhibition of lipid body formation” (Beth Israel Hospital, priority 1995, dated 1998)

Columns and labels:
[1] = system: peritoneal macrophages from wild type mice; experiment: lipid body formation in peritoneal macrophages from wild type mice; format: cell-based, mouse; details: for induction of lipid bodies in macrophages: wild-type mouse, AA 3.7-15 μM or OA 2.5-10 μM
Experimental: (§1) FIG. 4 is a graph illustrating the effects of arachidonic acid and oleic acid on lipid body formation in peritoneal macrophages from wild type (+/+) and cyclooxygenase-1 knockout (-/-) mice. The agonists AA and OA are represented by the square and circle symbols, respectively. The closed symbols represent the wild type mice; the open symbols represent the cyclooxygenase-1 knockout mice. Macrophages (10^6 /mL) were incubated with the agonists AA and OA at varying concentrations for an hour. Lipid bodies were enumerated using light microscopy following osmium staining. Each point represents the mean±SEM from fifty consecutively scanned macrophages.
(§2) Cyclooxygenase-1 and cyclooxygenase-2 knockout mice were generated as recently described (Morham et al., Cell 83:473-482 (1995); Langenbach et al., Cell 83:483-492 (1995)). All experiments were carried out with male 8-12 week old mice. Macrophages from cyclooxygenase genetically deficient mice and wild-type litter mates were obtained by lavaging the peritoneal cavity with 5 mL of cold RPMI containing heparin (20 IU/mL).
(§3) ^1 Peritoneal macrophages from wild type and COX 1 knockout mice were
(§4) pretreated with the NSAID or vehicle for 1h and then stimulated with
(§5) arachidonic acid (AA, 15 μM) or vehicle for 1h. Results are mean ±
(§6) SEM from fifty consecutively counted macrophages. The statistically

[2] = system: macrophages from cyclooxygenase-2 deficient mice; experiment: lipid body formation in macrophages from cyclooxygenase-2 deficient mice; format: cell-based, mouse; details: AA 3.7-15 μM or OA 2.5-10 μM
Experimental: as §2

[3] = system: peritoneal macrophages from COX 1 knockout mice; experiment: lipid body formation in peritoneal macrophages from cyclooxygenase-1 knockout mice; format: cell-based, mouse; details: for induction of lipid body formation in macrophages: cyclooxygenase-1 deficient mice, AA 3.7-15 μM or OA 2.5-10 μM
Experimental: as §1, §2, §3, §4, §5, §6

[4] = system: human neutrophils (PGE2 production); experiment: PGE2 production by human neutrophils (priming, A23187 stimulation, ELISA); format: cell-based
Experimental: FIG. 1B is a graph showing the effect of arachidonic acid (AA) and oleic acid (OA) on lipid body induction (black) and priming for enhanced prostaglandin E2 (PGE2) production (white) by human neutrophils. Neutrophils (10^6 /mL) were stimulated for one hour with arachidonic acid (3.7, 7.5, 15 μM) or oleic acid (2.5, 5, 10 μM). Lipid bodies were enumerated using light microscopy following osmium staining. The concentration of PGE2 in the supernatant was measured by ELISA after incubation with A23187 (0.5 μM) for 15 minutes at 37° C. Data are expressed as mean from 2-3 independent assays performed in duplicate.
After the incubation time, a sample was taken for lipid body enumeration and the cells were washed in Ca^++ /Mg^++ free HBSS. Leukocytes were resuspended in 1 mL of HBSS containing Ca^++ /Mg^++ and then stimulated with A23187 (0.5 μM) for 15 min. The reaction was stopped on ice, and the samples were centrifuged at 1500 rpm for 10 min at 4° C. The concentrations of PGE2, LTB4, and LTC4 in the supernatants were assayed by ELISA according to the manufacturer's instructions (Cayman, Ann Arbor, Mich.).

human eosinophils = experiment: cis-unsaturated fatty acid-induced lipid body formation in human eosinophils; format: cell-based
Experimental: Vehicle alone is represented by the dark columns. AA and OA are represented by the striped and gray columns, respectively. Agonist plus the pretreatment with aspirin is represented by the cross-hatched columns. Cells (10^6 /mL) were pretreated with aspirin (10 μg/mL) or vehicle for one hour and then stimulated arachidonic acid (15 μM), oleic acid (10 μM) or vehicle for one hour. Lipid bodies were enumerated by light microscopy following osmium staining. Each point represents the mean±SEM from fifty consecutively counted cells. The statistically significant difference between the vehicle alone and the agonist is represented by a cross. Statistically significant differences due to pretreatment with aspirin are indicated by an asterisk.
Neutrophils were purified from fresh human blood obtained by venipuncture from healthy adult volunteers and collected into acidified citrate. After addition of 6% dextran 70 (McGaw, Irvine, Calif.), RBCs were allowed to sediment for 1 hour at room temperature. The leukocyte-rich supernatant was overlaid onto an equal volume of Ficoll-Paque gradient (Piscataway, N.J.), and centrifuged at 400×g for 20 min. PMNs (>95% pure, rest being eosinophils) were recovered from the pellet and washed in Ca^++ /Mg^++ free HBSS. Residual RBCs were lysed with hypotonic saline. Eosinophils (80% pure, the rest being neutrophils) were obtained from a donor with idiopathic hypereosinophilic syndrome using the same procedure as described above.
Human leukocytes (10^6 cells/mL) were incubated with varying concentrations of arachidonic acid (AA), oleic acid (OA) or vehicle at 37° C. in a 5% CO2 /95% O2 atmosphere, and after 1 hour leukocytes (10^5 cells per slide) were cytocentrifuged (550 rpm, 5 min) onto glass slides. During inhibitory studies, neutrophils were pretreated for 1 hour with varying concentrations of enzyme inhibitors, protein synthesis inhibitors, or vehicle as indicated. When PKC inhibitors were used, the pre-incubation time was reduced to 30 minutes to avoid toxic effects to the cells. The cell viability, determined by trypan blue dye exclusion at the end of each experiment, was always greater than 90%. Stock solutions for A23187, D609, U-73122, and indomethacin were prepared in DMSO and stored at -20° C. Aliquots were diluted in Ca^++ /Mg^++ fee HBSS to the indicated concentration immediately prior to use. […]
Results were expressed as mean±SEM and were analyzed statistically by means of the analysis of variance followed by the Newman-Keuls-Student test with the level of significance set at p<0.05. Correlation coefficients were determined by linear regression, and correlation analysis was performed by Fisher's r to z transformation with the level of significance set at p<0.05.

[5] = system: wild-type mouse neutrophils; experiment: lipid body formation in wild-type mouse neutrophils; format: cell-based; details: AA 3.7-15 μM or OA 2.5-10 μM
[6] = system: neutrophils (arachidonic acid uptake); experiment: 14C-arachidonic acid uptake in arachidonic acid-stimulated neutrophils; format: cell-based, human
Experimental: Neutrophils (10^6 /mL) were labeled with ^14 C-arachidonic acid (0.01 μCi/sample) together with either vehicle, aspirin (10 μg/mL), indomethacin (1 μg/mL) or sodium salicylate (10 μg/mL) for 1 hour. After the incubation period, lipid body formation was elicited by arachidonic acid (15 μM). The cells were washed 3 times in Ca^++ /Mg^++ free HBSS and analysis of incorporated ^14 C-arachidonic acid in the cell pellet was performed by liquid scintillation counting.
^1 The cells were pretreated with ^14 Carachidonic acid (0.01
μCi/sample) plus vehicle, aspirin (10 μg/ml) , sodium salicylate (1
μg/ml) or indomethacin (1 μg/ml) 1 h before the incubation with
arachidonic acid (15 μM). Cells were washed 3 times before the analysi
of incorporated ^14 Carachidonic acid. Results are representative of
independent experiments.

colorectal cancer = details: humans taking drug regularly vs persons not taking; cited from earlier work
[7] = Homo sapiens, Neutrophil, 1 h, read-out: fold increase in production of PGE2

SMILES | lipid bodies (mean ± SEM)/macrophage ([1]; wild type, AA 15 μM alone, 1 h, no NSAID) | induction of lipid bodies in macrophages [1] | induction of lipid body formation in macrophages [2] | lipid bodies (mean ± SEM)/macrophage ([3]; COX 1 knockout, AA 15 μM alone, 1 h, no NSAID) | induction of lipid body formation in macrophages [3] | fold induction at 15 µM [4, 7] | increase in production of PGE2 ([4]; neutrophils) | increase in number of lipid bodies (human eosinophils) | induction of lipid bodies in neutrophils [5] | inhibition of PGE2 production ([4]; neutrophils, 10 μg/mL pretreatment) | inhibition of arachidonic acid-induced lipid body formation (human eosinophils; 10 μg/mL) | inhibition of oleic acid-induced lipid body formation (human eosinophils; 10 μg/mL) | inhibition of 14C-arachidonic acid uptake ([6]; arachidonic acid-stimulated cells, aspirin 10 μg/mL, sodium salicylate 10 μg/mL, indomethacin 1 μg/mL) | 14C-AA uptake ([6]; stimulus arachidonate 15 μM, drug 10 μg/ml) | lower risk of developing colorectal cancer (colorectal cancer) | fold induction at 10 µM [4, 7] | correlation (r) between number of lipid bodies and priming for enhanced PGE2 release ([4]; oleic acid, leukocytes, p<0.01)
CCCCC/C=C\C/C=C\C/C=C\C/C=C\CCCC(=O)O [arachidonic acid] | 6.8 ± 0.3 lipid bodies/macrophage | can also be stimulated in vitro to produce lipid bodies | induced lipid body formation | 7.0 ± 0.5 lipid bodies/macrophage | induced lipid body formation | 3.5 | dose-dependent increase in production | dose-dependent increase in the number of lipid bodies | can also be stimulated in vitro to produce lipid bodies |  |  |  |  |  |  |  | 
CC(=O)Oc1ccccc1C(=O)O [aspirin] |  |  |  |  |  |  |  |  |  | inhibited PGE2 production | significantly inhibited | significantly inhibited | failed to inhibit | 6974 cpm | 40-50% |  | 
CCCCCCCC/C=C\CCCCCCCC(=O)O [oleic acid] |  | can also be stimulated in vitro to produce lipid bodies | induced lipid body formation |  | induced lipid body formation |  | dose-dependent increase in production | dose-dependent increase in the number of lipid bodies | can also be stimulated in vitro to produce lipid bodies |  |  |  |  |  |  | 2 | 0.99
